Our source for the IC50 values is patent US8071642B2, “Dimethyl amino ethyl ether psoralens and methods for their production and use” (Rutgers, The State University of New Jersey, priority 2007, dated 2011).

Counter-ions that a name gives are not always drawn.

This assay concerns PAM 212 keratinocytes. As to the kind of experiment: Photo-induced growth inhibition assay against PAM 212 keratinocytes (UVA activated). The class given is cell-based. The note with it: 1.28 J/cm^2 UVA (320-400 nm), cells counted after 4-5 days of growth, read-out: IC50 (concentration at which photoactivated test compound inhibited growth by 50%). How it is done: The photobiological activity was assayed using a keratinocyte cell line grown in a monolayer culture. In this assay, PAM 212 keratinocytes were grown in Dulbecco's Modified Eagle's medium supplemented with 10% newborn calf serum in a 5% carbon dioxide incubator. Cells were inoculated into 6-well Falcon plastic culture dishes at 25,000 cells per well. After 24 hours, the medium was charged to fresh growth medium supplemented with increasing concentrations of the test compounds or the control medium. Controls and test concentrations were analyzed in triplicate.
These plates were incubated in a 37° C. carbon dioxide incubator. After 30 minutes, culture plates were exposed to UVA light (UVA, 320-400 nm) emitted from a bank of four BLB fluorescence light tubes (F40 BL, Sylvania) placed approximately 10 cm above the cell culture plates. The incident light on the culture plates was 2.4 mW/cm^2 as measured with an International Light UV radiometer, Model IL442A). […]
After completion of the irradiation phase, the cell culture medium was drained, the cells were refed with fresh growth medium and then re-incubated with carbon dioxide incubator to allow for cell growth. […] The cells were detached from the plates with trypsin and counted in a Coulter Counter. For control cells or for cells treated with test compounds, cell growth was determined as a percentage of control.

“8-[2-(N,N-dimethylamino)ethoxyl-psoralen hydrochloride salt [Formula I (R=H, R1=H, A-B=—CH═CH—)]”: the IC50 was determined as 0.012 µM.
Next, `CN(C)CCOc1c2c(cc3ccc(=O)oc13)CCO2` [Formula I R=H, R1=H, A-B=—CH2—CH2—, 8-[2-(N,N-dimethylamino)ethoxy]-4′,5′-dihydropsoralen hydrochloride salt]: 13 µM.
